This is an account of results in publication PMC6522510 (Nature Communications, 2019).

Where two headings read alike, the source gives them in different places.

What all share (set-up): species or system AML cell lines (8); Primary HTS, single concentration about 10 uM, Cell Titer Glo viability; log10 luminescence, per cent inhibition relative to cycloheximide control
What all share (conditions): 72 h, relative to cycloheximide control, log10 luminescence, inhibitor
In general terms: In ATP-based viability assays light output follows the ATP content of the culture.

For assay [1], the system named is MOLM-13.
The test system of assay [2] is U937.
Assay [3] concerns M07e.
The test system of assay [4] is ML-2.
The subject of assay [5] is CHRF288-11.
In assay [6] the test system is CMK.
For assay [7], the system named is CMS.
For assay [8], the system named is MV4-11.

Take `CCOc1ccccc1CCN=C1NC(=O)/C(=C/c2ccc3ncccc3c2)S1` [SJ000581120-1]: the MOLM-13 %inh in assay [1] is 1.703%. In assay [2], the U937 %inh is reported as 6.277%. Also, the M07e %inh in assay [3] came out at 13.3%. In addition, the ML-2 %inh in assay [4] is reported as 18.56%. The CHRF288-11 %inh in assay [5] is recorded as -1.679%. The CMK %inh in assay [6] amounted to 13.66%. In addition, the CMS %inh in assay [7] amounted to 5.975%. The MV4-11 %inh in assay [8] is given as 0.5335%.
As for `C#Cc1cccc(Nc2ncnc3ccc(OCCCCNCCS(C)(=O)=O)cc23)c1` [SJ000573075-1, U14819/194/1], in assay [1], the MOLM-13 %inh was 9.087%. The U937 %inh in assay [2] was -0.213%. For the same molecule, the M07e %inh in assay [3] is recorded as -0.9936%. Besides, the ML-2 %inh in assay [4] was 4.028%. Further, in assay [5], the CHRF288-11 %inh came to 4.443%. Further, the CMK %inh in assay [6] amounted to 9.032%. The CMS %inh in assay [7] came to 3.196%. The MV4-11 %inh in assay [8] was -0.7985%.
Regarding `CCn1c(-c2nonc2N)nc2cnc(Oc3cccc(NC(=O)c4ccc(OCCN5CCOCC5)cc4)c3)cc21` [SJ000573222-1, HC204505-099A1], the MOLM-13 %inh in assay [1] was determined as 15.66%. In addition, the U937 %inh in assay [2] came to 38.21%. The M07e %inh in assay [3] is -2.093%. The ML-2 %inh in assay [4] was 11.73%. Further, in assay [5], the CHRF288-11 %inh is 16.4%. For the same molecule, in assay [6], the CMK %inh was determined as 59.96%. The CMS %inh in assay [7] came to 9.487%. Also, the MV4-11 %inh in assay [8] came out at 34.29%.
Take `NC[C@H](CC(=O)O)c1ccc(Cl)cc1` (racemic) [SJ000285686-7, BACLOFEN | (R,S)-BACLOFEN | (±)-BACLOFEN | LIORESAL]: in assay [1], the MOLM-13 %inh turned out to be 8.873%. Moreover, the U937 %inh in assay [2] was 5.766%. For the same molecule, the M07e %inh in assay [3] is given as -0.3712%. Besides, the ML-2 %inh in assay [4] was 2.059%. In addition, the CHRF288-11 %inh in assay [5] is -1.195%. Further, the CMK %inh in assay [6] was found to be 21.33%. The CMS %inh in assay [7] turned out to be 7.511%. In addition, the MV4-11 %inh in assay [8] was 2.346%.
Regarding `COc1cccc(-c2c[nH]c3c(N/N=C/c4ccncc4)ncnc23)c1` [SJ000573184-1, U18675/6/1], the MOLM-13 %inh in assay [1] is 59.82%. In assay [2], the U937 %inh is given as 14.24%. Also, the M07e %inh in assay [3] is 38.1%. For the same molecule, the ML-2 %inh in assay [4] stood at 19.51%. For the same molecule, the CHRF288-11 %inh in assay [5] amounted to 52.41%. Further, the CMK %inh in assay [6] is 96.73%. For the same molecule, the CMS %inh in assay [7] is reported as 90.74%. Besides, the MV4-11 %inh in assay [8] was found to be 58.64%.
As for `Cn1cc(C2=C(c3cn(C)c4ccccc34)C(=O)NC2=O)c2ccccc21` [SJ000580978-1], the MOLM-13 %inh in assay [1] is given as 3.271%. In addition, the U937 %inh in assay [2] came to 66.13%. The M07e %inh in assay [3] stood at 52.37%. In assay [4], the ML-2 %inh is reported as 13.32%. The CHRF288-11 %inh in assay [5] is -0.8174%. Also, in assay [6], the CMK %inh is 24.68%. Also, the CMS %inh in assay [7] was found to be 40.67%. Further, in assay [8], the MV4-11 %inh was found to be 62.31%.
Turning to `CC1(C)CCC(C)(C)c2cc(C3(c4ccc5cc(C(=O)O)ccc5c4)SCCS3)ccc21` [SJ000573478-2, MM 11253], the MOLM-13 %inh in assay [1] is 2.534%. Further, the U937 %inh in assay [2] is given as 1.985%. Also, the M07e %inh in assay [3] was found to be 1.802%. Further, in assay [4], the ML-2 %inh is 0.2271%. In addition, the CHRF288-11 %inh in assay [5] is -4.46%. In addition, in assay [6], the CMK %inh is -3.669%. The CMS %inh in assay [7] was determined as 0.01284%. Besides, the MV4-11 %inh in assay [8] worked out at 1.741%.
Consider `Cc1ccc(-c2cc3c(NC(=O)C4CC4)ncnc3o2)cc1` [SJ000573325-1, T337/155/21], for which the MOLM-13 %inh in assay [1] is reported as -1.693%. Moreover, the U937 %inh in assay [2] is -2.342%. For the same molecule, the M07e %inh in assay [3] is on record as 5.01%. The ML-2 %inh in assay [4] was determined as 1.949%. For the same molecule, the CHRF288-11 %inh in assay [5] came to 1.899%. Further, the CMK %inh in assay [6] is -5.745%. Also, in assay [7], the CMS %inh is recorded as 1.223%. In addition, in assay [8], the MV4-11 %inh is -4.319%.
With `C[C@H]1O[C@@H](O[C@H]2[C@@H](O)C[C@H](O[C@H]3[C@@H](O)C[C@H](O[C@H]4CC[C@@]5(C)[C@H](CC[C@@H]6[C@@H]5C[C@@H](O)[C@]5(C)[C@@H](C7=CC(=O)OC7)CC[C@]65O)C4)O[C@@H]3C)O[C@@H]2C)C[C@H](O)[C@@H]1O` [SJ000285739-5, DIGOXIN], the MOLM-13 %inh in assay [1] (MOLM-13 %inh, 10 µM) stood at 106.4%. Besides, the U937 %inh in assay [2] (U937 %inh, 10 µM) was found to be 89.45%. Further, the M07e %inh in assay [3] (M07e %inh, 10 µM) stood at 115.6%. In addition, the ML-2 %inh in assay [4] (ML-2 %inh, 10 µM) turned out to be 70.4%. For the same molecule, in assay [5] (CHRF288-11 %inh, 10 µM), the CHRF288-11 %inh was determined as 126.2%. Also, the CMK %inh in assay [6] (CMK %inh, 10 µM) is 94.03%. Moreover, the CMS %inh in assay [7] (CMS %inh, 10 µM) was determined as 110.4%. The MV4-11 %inh in assay [8] (MV4-11 %inh, 10 µM) stood at 85.53%.
Take `C[C@H](CCC(=O)O)[C@H]1CC[C@H]2[C@@H]3CC[C@@H]4C[C@H](O)CC[C@]4(C)[C@H]3CC[C@]12C` [SJ000286918-3, LITHOCHOLIC ACID]: in assay [1], the MOLM-13 %inh is reported as 2.496%. Further, the U937 %inh in assay [2] turned out to be 0.7056%. Moreover, the M07e %inh in assay [3] is 1.09%. The ML-2 %inh in assay [4] was 1.903%. Besides, the CHRF288-11 %inh in assay [5] was 7.532%. In addition, the CMK %inh in assay [6] is recorded as -0.09844%. Moreover, the CMS %inh in assay [7] was 2.61%. Also, the MV4-11 %inh in assay [8] is 1.619%.
Take `NCc1ccc(-n2c(-c3nonc3N)nc3cnccc32)cc1` [SJ000573066-1, CP100101-172A1]: the MOLM-13 %inh in assay [1] turned out to be 27.71%. The U937 %inh in assay [2] is 21.07%. In addition, the M07e %inh in assay [3] is recorded as 5.233%. For the same molecule, the ML-2 %inh in assay [4] turned out to be 11.91%. In addition, the CHRF288-11 %inh in assay [5] amounted to 11.55%. Further, in assay [6], the CMK %inh is recorded as 18.18%. For the same molecule, in assay [7], the CMS %inh was 11.21%. Moreover, in assay [8], the MV4-11 %inh turned out to be 62.53%.
For `Nc1nccc(-c2c(-c3ccc(F)cc3)nn3cc(C(F)(F)F)ccc23)n1` [SJ000573142-1, U14741/95/1], the MOLM-13 %inh in assay [1] came to 0.5656%. For the same molecule, the U937 %inh in assay [2] is -1.917%. Also, the M07e %inh in assay [3] came to 93.92%. Moreover, in assay [4], the ML-2 %inh was 1.904%. Further, the CHRF288-11 %inh in assay [5] is 1.132%. In assay [6], the CMK %inh is -0.4076%. In addition, the CMS %inh in assay [7] is listed as -0.8913%. Further, the MV4-11 %inh in assay [8] is recorded as -1.787%.
As to `Cc1ccc2c(-c3ccnc(Nc4cccc(C(F)(F)F)c4)n3)c(-c3ccccc3)nn2n1` [SJ000573057-1, U18020/146/1], in assay [1], the MOLM-13 %inh is -0.1836%. In assay [2], the U937 %inh came to 5.106%. The M07e %inh in assay [3] was determined as 0.344%. Moreover, in assay [4], the ML-2 %inh worked out at 9.435%. Further, the CHRF288-11 %inh in assay [5] is on record as -3.995%. The CMK %inh in assay [6] is given as 8.756%. For the same molecule, the CMS %inh in assay [7] was 10.95%. In addition, the MV4-11 %inh in assay [8] is reported as 9.271%.
As to `COc1ccc(C2=CC3=C(Br)C(=O)C(C)(O)C(=O)C3=CO2)cc1` (centres unmarked) [SJ000580186-1], the MOLM-13 %inh in assay [1] is 3.615%. For the same molecule, the U937 %inh in assay [2] was 1.575%. The M07e %inh in assay [3] was 0.3527%. Moreover, in assay [4], the ML-2 %inh was -0.5513%. Besides, in assay [5], the CHRF288-11 %inh was -2.02%. Moreover, in assay [6], the CMK %inh is -1.841%. The CMS %inh in assay [7] is -0.7753%. Further, in assay [8], the MV4-11 %inh turned out to be 1.031%.
As for `CC(C(=O)O)c1ccc(C(=O)c2cccs2)cc1` (centres unmarked) [SJ000285866-4, SUPROFEN], the MOLM-13 %inh in assay [1] came out at 1.517%. Besides, in assay [2], the U937 %inh is 0.9376%. In addition, the M07e %inh in assay [3] is given as -0.1194%. In addition, the ML-2 %inh in assay [4] is 4.32%. Moreover, the CHRF288-11 %inh in assay [5] was determined as 0.5358%. For the same molecule, the CMK %inh in assay [6] worked out at 0.7662%. Besides, the CMS %inh in assay [7] was -1.053%. Besides, the MV4-11 %inh in assay [8] is given as -0.1438%.
In the case of `Clc1ccc(-c2nc3sccn3c2/C=N/OCc2ccc(Cl)c(Cl)c2)cc1` [SJ000546521-1, CITCO], in assay [1], the MOLM-13 %inh is recorded as -1.049%. Further, the U937 %inh in assay [2] is -0.9685%. In assay [3], the M07e %inh is 0.1835%. In addition, the ML-2 %inh in assay [4] is on record as -0.03995%. Further, the CHRF288-11 %inh in assay [5] is listed as 8.549%. Besides, the CMK %inh in assay [6] was -3.05%. Moreover, the CMS %inh in assay [7] was found to be 0.2267%. In addition, in assay [8], the MV4-11 %inh stood at 0.01601%.
